Experimental data: patent publication US20190344265A1, “Networked Cell Holder Chip” (priority 2018, published 2019)

Test system: breast cancer cells
Experiment: Cell protrusion length of breast cancer cells in the networked cell-holder chip (time course imaging)
Type: cell-based
Text: To load the cells into the chip of the present invention, a medium containing suspended cells is dropped onto the surface of the well plate of a chip of the present invention via a multichannel pipette or liquid handling system. In some embodiments of the present invention, 20-ml of the medium is dropped onto a chip of the present invention having a width of 86 mm, a length of 128 mm, and height of 14 mm. The chip is loaded on one of the receptors 302 of the bucket rotor 300. The bucket rotor is spun by the centrifuge 304 to drive the cells into the microwells of the chip. […] Filter papers (e.g., manufactured by Whatman) are used to swipe away the unloaded cells. Finally, the cells are cultured at 37° C. in the chip 100 a humidified atmosphere with 5% CO2, to enable protrusions to extend in the microchannels. The cells are also stained (for example, with green fluorescent protein—GFP) to enhance visibility of the cells and protrusions. […] The loaded breast cancer cells in both chips were incubated overnight. In the chip that was to be treated with the drug, the medium was replaced by a fresh culture medium mixed with paclitaxel concentration of 0.5 μM, after the incubation period.

CC(=O)O[C@H]1C(=O)[C@@]2(C)[C@H]([C@H](OC(=O)c3ccccc3)[C@]3(O)C[C@H](OC(=O)[C@H](O)[C@@H](NC(=O)c4ccccc4)c4ccccc4)C(C)=C1C3(C)C)[C@]1(OC(C)=O)CO[C@@H]1C[C@@H]2O [paclitaxel]
time until effects of the drug on the cancer cells were clear (breast cancer cells in chip, paclitaxel 0.5 μM): within one hour
normalized length of cell protrusion over time (breast cancer cells incubated overnight in chip, then medium with paclitaxel 0.5 μM, sample of 51 cells (FIG. 29), untreated comparison 64 cells (FIG. 28)): reduces the length of the protrusions
